Assay results: patent US12092575B2, “Measuring method of cell migration using the rate of cell invasion” (MBD Co., Ltd., priority 2021, dated 2024)

Columns and labels:
[1] = system: #1 HNSCC PDC; test: Pillar-based spheroid invasion assay of #1 HNSCC PDC; type: cell-based, human; conditions: #1 HNSCC PDC spheroids, 80 μM of drugs, three days
[2] = system: A549 cells; test: Transwell invasion assay (Matrigel-coated membrane); type: cell-based; conditions: 1 μM docetaxel, 24 h, Matrigel-coated membrane (FIG. 6)
Method: In the present invention, transwell for conventional invasion assay was used. The membrane of the transwell was coated with 100 μl Matrigel (Corning, NY, USA) basement membrane matrix diluted 9-fold. A549 cells (2×10^4 cells/well) were seeded in the insert of the transwell with RPMI media without FBS. 500 μl RPMI media with FBS was filled in the wells to serve as a chemoattractant. After 24 h of cell incubation, migrated cells on the insert were fixed with 95% ethyl alcohol and then stained with 0.5% crystal violet.
Based on the fluorescence intensity, spheroid was identified, and invasive cells were calculated by subtracting the spheroid area from the total cell area. A549 cells formed a spheroid two days after cell aggregation and incubation. Cells surrounding spheroid migrated for an additional three days of culture. To check the invasiveness of A549 cells, the present inventors conducted invasion assay using Transwell (24-well transwell, Cat. No. 3422, Corning, USA) in no drug and 1 μM Docetaxel.

[3] = system: A549 cell line; test: Pillar-based spheroid invasion assay of A549 cell line
Method: Before using the pillar array, the pillar array and cell-encapsulation apparatus were immersed in 70% ethanol for 30 min for sterilization followed by complete drying at room temperature.

Structure (SMILES)	cell migration/invasion (spheroid morphology) [1]	invasion of A549 in the Transwell [2]	cell invasion ([3]; A549 spheroids on pillar)	size of a single big spheroid (spheroid area) ([3]; A549 spheroids on pillar (FIG. 8))	total cell area, which means cell viability ([3]; A549 spheroids on pillar, as a function of docetaxel concentration (FIG. 7))	invasion ratio ([3]; A549 spheroids on pillar, docetaxel treated, control 52% (FIG. 9))
CN[C@@H]1C[C@H]2O[C@@](C)([C@@H]1OC)n1c3ccccc3c3c4c(c5c6ccccc6n2c5c31)C(=O)NC4 [staurosporine, Staurosporine]	effectively inhibited cell migration/invasion					
N.N.[Cl][Pt][Cl] [cisplatin, Cisplatin]	effectively inhibited cell migration/invasion					
CC(=O)O[C@@]12CO[C@@H]1C[C@H](O)[C@@]1(C)C(=O)[C@H](O)C3=C(C)[C@@H](OC(=O)[C@H](O)[C@@H](NC(=O)OC(C)(C)C)c4ccccc4)C[C@@](O)([C@@H](OC(=O)c4ccccc4)[C@H]21)C3(C)C [docetaxel, Docetaxel]	effectively inhibited cell migration/invasion	inhibited the invasion	inhibited cell invasion	reduced the size of a single big spheroid	decreased depending on docetaxel concentration	lower than 35%
